Where two headings read alike, the source gives them in different places.
Test system: bovine viral diarrhea virus (BVDV)
Conditions: 60 minutes, 20° C., Reed and Muench
Description: In this example bovine viral diarrhea virus (BVDV), biotype 1 (CPE), genotype 1 Host: Madin-Darby bovine kidney (MDBK) cells were inactivated according to the methods discussed in Example 2.
Bovine viral diarrhea virus (BVDV), biotype I (CPE), genotype 1 was used in these studies which infect Madin-Darby bovine kidney (MDBK) cells. […] These samples (0.5 mL) were loaded into pre-spun sephacryl columns. The columns were spun for 4 minutes at 1000 rpm. The samples were aseptically removed from the columns and ten-fold serial dilutions were then prepared in minimal essential medium (MEM) and adsorbed on the monolayer of host cells seeded in tissue culture plates for one hour at 37±2° C. and 5±1% C02. Post-adsorption, the monolayers were washed with EBSS and replaced with fresh MEM and incubated for 5-7 days at 37±2° C. and 5±1% C02. The presence of infectious viruses was determined as described below: post-incubation, the plates were washed with 3× with PBS and fixed with TC grade alcohol and stained with direct porcine polyclonal anti-BVDV conjugated antibody. The stained plate were scored using UV microscopy using a Nikon Diaphot microscope, and monolayers that contained one or more BVDV surface antigen positive […] were scored positive. Four wells per dilution were inoculated and results were recorded as the FFFUD50 calculated by Reed and Munch (1938).

Measured: FFFUD50/mL (log10)

paraformaldehyde
0 FFFUD50/mL (log10): 2.5% paraformaldehyde column 1 | 2.5% paraformaldehyde column 2 | 2.5% paraformaldehyde column 3 | 2.5% paraformaldehyde column 4

From patent US9120849B2 (priority 2000, dated 2015)
